Results reported in PubChem BioAssay AID600 (The Scripps Research Institute Molecular Screening Center, 2007).
The source made the active and inactive calls.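 The calls were made as follows: active = IC50 at or below 10 micromolar; inactive = IC50 above 10 micromolar.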

Each molecule was assayed against Steroidogenic factor 1 (Homo sapiens) (UniProt Q13285) (assay: blockers of SF-1 LBD reporter transcription – cell-based, CHO-K1, Gal4-SF-1 LBD, luciferase luminescence, dose response (AID 600)). Settings: CHO-K1 Gal4-SF-1 LBD luciferase reporter.
Chain of Steroidogenic factor 1 (Homo sapiens) (Q13285 whole entry, looked up, the tested form may be a part): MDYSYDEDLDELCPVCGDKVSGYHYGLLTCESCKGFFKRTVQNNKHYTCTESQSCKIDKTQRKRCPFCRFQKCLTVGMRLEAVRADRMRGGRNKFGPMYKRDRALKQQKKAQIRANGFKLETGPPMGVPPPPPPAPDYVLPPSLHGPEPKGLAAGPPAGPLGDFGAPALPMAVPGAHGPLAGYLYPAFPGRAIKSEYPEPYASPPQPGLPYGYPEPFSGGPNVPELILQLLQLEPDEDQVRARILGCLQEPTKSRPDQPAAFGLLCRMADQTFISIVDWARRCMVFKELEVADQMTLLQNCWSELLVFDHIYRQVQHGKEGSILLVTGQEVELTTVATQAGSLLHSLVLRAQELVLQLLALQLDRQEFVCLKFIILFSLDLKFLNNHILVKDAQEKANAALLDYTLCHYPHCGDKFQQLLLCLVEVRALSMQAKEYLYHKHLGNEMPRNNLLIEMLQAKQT
For `CSC1=C(C#N)C(c2ccc(Cl)cc2)C2=C(CC(C)(C)CC2=O)N1` (stereo not drawn), the IC50 was “inactive”. `CCN(CC)c1ccc2c(c1)OC(N)=C(C#N)C2c1cccnc1` (stereo not drawn) was tested, and the IC50 was > 3.67 µM (inactive). With `CN(C)c1ccc2c(c1)OC(N)=C(C#N)C2c1cccc(F)c1` (stereo not drawn) the IC50 was “inactive”. For `COc1cc(C2C(C#N)=C(N)Oc3cc(N)ccc32)cc(OC)c1OC` (stereo not drawn), the IC50 was 7.92 µM. Work on `COC(=O)C1=C(CN2CCCc3ccccc32)NC(=O)NC1c1ccc(F)cc1` (stereo not drawn) yielded an IC50 of 5.34 µM. `COc1cc(/C=N/O)ccc1OCc1ccc(C(=O)O)cc1` showed an IC50 of 1.16 µM. In the case of `CC(=O)CC1OC(=O)C(Br)=C1NCc1ccccc1` (stereo not drawn), the IC50 is reported as > 11 µM (inactive). For `COC(=O)c1ccc(N2C(=O)CC(N3CCC(n4c(=O)[nH]c5ccccc54)CC3)C2=O)cc1` (stereo not drawn), the IC50 was > 99 µM (inactive). `O=C(/C=C\Nc1ccccn1)c1ccc(Cl)cc1` gave an IC50 of 6.09 µM. Molecule `CCOc1ccccc1-n1c(SCC(=O)Nc2ccc(CC)cc2)nc2n[nH]c(C)c2c1=N` has an IC50 of 5.99 µM. Work on `O=C(/C=C\Nc1cccc(F)c1)c1ccc2c(c1)OCO2` yielded an IC50 of 4.65 µM. With `COc1cc(C2C(C#N)=C(N)Oc3cc(N(C)C)ccc32)cc2c1OCO2` (stereo not drawn) the IC50 was > 3.67 µM (inactive). With `Cc1ccc(C(=O)/C=C/Nc2ccccn2)cc1` the IC50 was > 11 µM (inactive). `CN(C)c1ccc(N/C=C/C(=O)c2ccccc2)cc1` was tested, and the IC50 was > 11 µM (inactive). In the case of `O=C(/C=C\Nc1ccc2c(c1)OCO2)c1ccccn1`, the IC50 is reported as “inactive”. For `O=S(=O)(c1ccc2c(c1)C(=NO)c1cc(S(=O)(=O)N3CCCCC3)ccc1-2)N1CCCCC1`, the IC50 was 1.51 µM. With `N#CC1=C(N)C(C#N)(C#N)[C@H](c2ccncc2)[C@H]2CN(C(=O)OCc3ccccc3)CC=C12` the IC50 was “inactive”. In the case of `CCOC(=O)C1=C(Cn2cnc3ccccc32)NC(=O)NC1c1cc(C)ccc1C` (stereo not drawn), the IC50 is reported as “inactive”.
